Measurements published in PubChem BioAssay AID1996.
In brackets after ≈: the same amount, converted by molar mass.

conditions: buffer; pH 7.4; 200.0 µM

| Structure (SMILES) | solubility kinetic [µg/mL] |
| --- | --- |
| O=C(C(=S)N1CCOCC1)c1c[nH]c2ccccc12 | > 41.2 |
| COc1cc(C(=O)NC(=S)N2CCN(C)CC2)cc(OC)c1OC | > 53 |
| O=C(COC(=O)c1ccccc1OCc1ccc(Cl)cc1)NCC1CCCO1 (stereo not given) | > 60.6 |
| O=C(NCc1ccncc1)C(=O)Nc1nccs1 | > 39.3 |
| NC(=O)c1cc([N+](=O)[O-])ccc1N1CCN(Cc2ccccc2)CC1 | 23 (≈ 67.6 µM) |
| Clc1ccc(Oc2ccccc2)c2ncccc12 | 10.7 (≈ 41.8 µM) |
| O=c1c2c([nH]c3ccccc13)CCC2 | > 27.8 |
| Cn1c(N)c(C(=O)COC(=O)/C=C/c2ccccc2)c(=O)n(C)c1=O | 11.6 (≈ 33.8 µM) |
| CC(C)CC(C(=O)Nc1cccc(O)c1)N1C(=O)c2ccccc2C1=O (stereo not given) | > 52.9 |
| O=C(O)c1ccccc1C(=O)Nc1c(-c2ccccc2)nc2ccccn12 | 49.6 (≈ 139 µM) |
| CC(=O)c1ccc(NC(=S)Nc2cccc(Cl)c2C)cc1 | 40.7 (≈ 128 µM) |
| Cc1ccc(C)c(NC(=O)Nc2ccc3c(c2)OCO3)c1 | 1 (≈ 3.52 µM) |
| O=Cc1cccc(OC(=O)Nc2ccccc2)c1 | 29.2 (≈ 121 µM) |
| COc1ccc2c(c1)c(C(C)=O)c(C)n2CCc1ccc(OC)c(OC)c1 | 50.8 (≈ 138 µM) |
| O=c1[nH]c2ccsc2c(=O)n1CCO | > 31.8 |
| CCN1CCc2c(OCC(=O)Nc3cccc(C)c3)cccc2C1=O | > 50.8 |
| CC1CCCN(C(=O)CCCC(=O)N2CCCC(C)C2)C1 (stereo not given) | > 44.2 |
| CCCCOC(=O)C1=C(C)NC(=O)NC1c1cccc([N+](=O)[O-])c1 (stereo not given) | 12.3 (≈ 36.9 µM) |
| CC(C)(C)Nc1nc(Cl)nc(NCc2ccccc2)n1 | 8 (≈ 27.4 µM) |
| Oc1ccccc1C=NCCN=Cc1ccccc1O | 27.6 (≈ 103 µM) |

| Structure (SMILES) | solubility kinetic [µg/mL] |
| --- | --- |
| Cc1nc2c(ccc3c([N+](=O)[O-])cccc32)c(C)c1C | 0.8 (≈ 3 µM) |
| CCOC(=O)N1CCN(CCC(=O)Nc2cc(C)ccc2C)CC1 | > 50 |
| CCOc1ccc2oc(C(=O)NCC3CCCO3)c(C)c2c1 (stereo not given) | 39.6 (≈ 131 µM) |
| Cc1cc(N2C(=O)C(O)=C(C(=O)c3cccs3)C2c2ccc(F)cc2)no1 (stereo not given) | > 57.7 |
| O=C(O)CCn1c(O)c(C=C2N=c3ccccc3=N2)sc1=S | > 50 |
| CC(=O)N1c2ccc(Cl)cc2C2OCCC2C1c1ccco1 (stereo not given) | 42.2 (≈ 133 µM) |
| COc1ccc(S(=O)(=O)N2CCc3ccccc3C2)cc1 | 0.7 (≈ 2.31 µM) |
| Cn1cccc1C(=O)OCC(=O)NCc1ccc2c(c1)OCO2 | > 47.4 |
| Cc1cc(C)c(S(=O)(=O)c2ccccc2Cl)c(=O)[nH]1 | 42.2 (≈ 142 µM) |
| Cc1noc(COc2ccccc2OCC(N)=O)n1 | > 39.5 |
| COc1ccc(C(=O)c2ccccc2)c(OCC(=O)NC2CC2)c1 | 31.5 (≈ 96.8 µM) |
| O=[N+]([O-])c1ccccc1S(=O)(=O)Nc1ccc(S(=O)(=O)N2CCCC2)cc1 | > 61.7 |
| COc1ccc2[nH]c3c(=O)n(CCCN4CCOCC4)cnc3c2c1 | > 51.4 |
| COc1ccccc1CN1CCCCC1C(=O)O (stereo not given) | 35.8 (≈ 144 µM) |
| CC1CCCC(C)N1C(=O)COC(=O)c1cccnc1Cl (stereo not given) | > 46.6 |
| NC(=O)COC(=O)c1sc2ccccc2c1Cl | 12.4 (≈ 46 µM) |
| O=C(Nc1ccc2ccccc2n1)Nc1ccccc1F | < 0.2 |
| Cc1ccc(SCC(=O)Nc2cccc(C)c2)cc1 | 0.8 (≈ 2.95 µM) |
| CC(=O)Nc1ccc(NC(=O)COC(=O)c2ccc(S(=O)(=O)NCc3ccco3)cc2)cc1 | 8.9 (≈ 18.9 µM) |
| O=C(COC(=O)c1cncc(Br)c1)NC1CCCCC1 | 46.6 (≈ 137 µM) |

| Structure (SMILES) | solubility kinetic [µg/mL] |
| --- | --- |
| O=C(/C=C/c1ccc(S(=O)(=O)N2CCOCC2)cc1)Nc1ccc(F)c(F)c1F | 6.9 (≈ 16.2 µM) |
| CC(=O)c1sc(=S)n(Cc2ccccc2)c1C | 38 (≈ 144 µM) |
| O=C(O)CCC(=O)N1CCN(c2ncccc2C(F)(F)F)CC1 | 44.5 (≈ 134 µM) |
| CCN(Cc1ccncc1)C(=O)c1ccc(Br)o1 | > 46.4 |
| O=[N+]([O-])c1ccc(N2CCN(c3ccc(F)cc3)CC2)nc1 | 0.3 (≈ 0.992 µM) |
| CC(=O)c1c(C)[nH]c(C(=O)Nc2cccc(C#N)c2)c1C | 10.8 (≈ 38.4 µM) |
| CCc1c(O)nc(SCC(=O)c2ccccc2)n(-c2ccccc2)c1=O | 44.6 (≈ 122 µM) |
| COc1ccc(N2CCN(C(CNS(=O)(=O)c3ccc(C)cc3)c3ccccc3)CC2)cc1 (stereo not given) | 1.4 (≈ 3.01 µM) |
| O=[N+]([O-])c1ccc(NCCCN2CCOCC2)nc1 | > 39.9 |
| CC1CCN(C(=O)/C(=C\c2ccco2)NC(=O)c2ccccc2)CC1 | > 50.8 |
| O=C(Nc1ccc(F)cc1)c1ccc(S(=O)(=O)N2CCCC2)cc1 | 4.4 (≈ 12.6 µM) |
| COc1ccc(Cc2c([O-])[nH]c(=O)[nH]c2=O)c(OC)c1.[NH4+] | 43.1 |
| Cc1ccccc1CSc1ccc(S(=O)(=O)N2CCCC2)cn1 | 3.1 (≈ 8.9 µM) |
| Nc1cc(=O)[nH]c(SCCSc2ccccc2)n1 | 9.6 (≈ 34.4 µM) |
| CN(Cc1ccc(F)cc1)C(=O)c1sccc1-c1ccccc1 | 21.4 (≈ 65.8 µM) |
| O=C(CCc1c[nH]c2ccccc12)N1CCCC1 | > 36.3 |
| CCCCC(=O)N(Cc1ccc(F)cc1)C1CCS(=O)(=O)C1 (stereo not given) | 46.9 (≈ 143 µM) |
| CCOc1ccc(S(=O)(=O)NC2=NCCCCC2)cc1 | > 44.5 |
| CC(=O)Nc1ccc(-c2cc(C(=O)O)c3ccc(C)cc3n2)cc1 | > 48.1 |
| Cc1cccc(-n2c(=S)[nH]c3nc4c(cc3c2=O)COC(C)(C)C4)c1 | 1.7 (≈ 4.81 µM) |
